From patent US20200048308A1, “INFLUENZA VIRUS NE[…]” (priority 2016, published 2020)
Read-outs that look alike come from different tables or passages of the source. Where a SMILES comes first, the peptide text is derived from it.

Legend:
[1] = biological target: H1/Cal HA (biotinylated full length trimeric HA, A/California/07/2009) (Influenza A virus, UniProt C3W5X2); assay: AlphaLISA competition assay with HB80.4, H1/Cal HA; type: binding, influenza A virus H1N1 A/California/07/2009
Excerpt: (§1) Binding competition studies were designed to test compounds of the invention for competition with other well characterized HA binding proteins (such as e.g. CR9114, CR6261 and HB80.4) with known epitopes on HA. The epitopes where either located at the stem of the HA (viral membrane proximal part of HA) or, for control purposes, at the head of HA (viral membrane distal part of HA). If competition was observed, it was assumed that both molecules bind to a similar or at least overlapping epitope at the surface of HA. Competition with a HA head- and stem-binder was interpreted as unspecific binding.
(§2) Hereto an AlphaLISA competition assay (Perkin Elmer) was established which relied on biotinylated full length and trimeric HA proteins (Protein Sciences, 10 μL, 0.5 nM final concentration in 50 μL) bound by HA-specific binders. The interaction between HA and the binder was detected after 1 h incubation at room temperature (RT) with two beads, a streptavidin donor bead recognizing HA (10 μL of 10 μg/mL) and an anti Fc bead (10 μg/mL) recognizing the IgGs used. If after an additional hour of incubation at RT the excited donor bead (680 nm) and acceptor bead are in close proximity, an energy transfer (singlet oxygen) can be measured as a luminescence signal of the acceptor bead (Perkin Elmer EnVision plate reader). The signal intensity in this homogeneous assay format is directly proportional to the binding strength (affinity/avidity) between both binding partners.

[2] = biological target: H1/Nca HA (biotinylated full length trimeric HA, A/New Caledonia/20/1999) (Influenza A virus, UniProt Q6WG00); assay: AlphaLISA competition assay with HB80.4, H1/NCa HA; type: binding, influenza A virus H1N1 A/New Caledonia/20/1999
Excerpt: as §1, §2

[3] = test system: influenza virus A/New Caledonia (H1); assay: Virus neutralization assay (VNA) on Calu-3 cells; type: cell-based, influenza A virus H1N1 A/New Caledonia/20/1999
[4] = ALC_H1_NCa_HB80.4 calculated pIC50, AlphaLISA competition with HB80.4 on H1 NCa HA, 0.5 nM HA
[5] = Calu-3 cells, 5 TCID50/50 μL virus, 4 days, NP ELISA readout

| Compound | IC50 [1] [µM] | IC50 [2, 4] [µM] | VNA_H1_NCa_Calu3 pIC50 [3, 5] | IC50 [2] [µM] | VNA_H1_NCa_Calu3 pIC50 [3] |
| --- | --- | --- | --- | --- | --- |
| CSCC[C@@H]1NC(=O)CNC(=O)CNC(=O)[C@H](C)NC(=O)[C@H](C(C)C)NC(=O)CNC(=O)[C@H](CC(C)C)NC(=O)[C@@H]2CCCN2C(=O)[C@H](CC(=O)O)NC(=O)[C@H](CCC(=O)O)NC(=O)[C@H](Cc2ccc(O)cc2)NC(=O)[C@H](CC(C)C)NC(=O)[C@@H]2CCCN2C(=O)[C@H]2CCCN2C(=O)CNC1=O [CP141086, Pro-Leu-Tyr-Glu-Asp-Pro-Leu-Gly-Val-Ala-Gly-Gly-Met-Gly-D-Pro] | 1.58 | 0.2 | 4.6 |  |  |
| CSCC[C@@H]1NC(=O)CNC(=O)CNC(=O)[C@H](C)NC(=O)[C@H](C(C)C)NC(=O)CNC(=O)[C@H](CC(C)C)NC(=O)[C@@H]2CCCN2C(=O)[C@H](CC(=O)O)NC(=O)[C@H](CCC(=O)O)NC(=O)[C@H](Cc2ccc(O)cc2)NC(=O)[C@H](CC(C)C)NC(=O)CNC1=O [CP141088, Leu-Tyr-Glu-Asp-Pro-Leu-Gly-Val-Ala-Gly-Gly-Met-Gly] | 0.251 |  |  | 0.251 | 4.4 |
| CC[C@@H]1NC(=O)[C@H](C(C)C)NC(=O)CNC(=O)[C@H](CCCc2ccccc2)NC(=O)[C@@H]2CCCN2C(=O)[C@H](CC(=O)O)NC(=O)[C@H](CCCNC(=N)N)NC(=O)[C@H](Cc2ccc(O)cc2)NC(=O)[C@@H](NC(=O)CCC(=O)O)CSSC[C@@H](C(N)=O)NC(=O)[C@H](CCSC)NC(=O)[C@H](CCC(=O)O)NC(=O)CNC1=O [CP141093, Suc-Cys-Tyr-Arg-Asp-Pro-Ph5-Gly-Val-Abu-Gly-Glu-Met-Cys-NH2] (HELM PEPTIDE1{[O=C(O)CCC(=O)[*:2]].C.Y.R.D.P.[O=C([C@H](CCCc1ccccc1)N[*:1])[*:2]].G.V.[Abu].G.E.M.C.[am]}$PEPTIDE1,PEPTIDE1,2:R3-14:R3$$$V2.0) | 10 |  |  | 20 |  |
| CSCC[C@@H]1NC(=O)[C@H](CCC(=O)O)NC(=O)CNC(=O)[C@H](C)NC(=O)[C@H](C(C)C)NC(=O)CNC(=O)[C@H](CC(C)C)NC(=O)[C@@H]2CCCN2C(=O)[C@H](CC(=O)O)NC(=O)[C@H](CCCNC(=N)N)NC(=O)[C@H](Cc2ccc(O)cc2)NC(=O)[C@@H](NC(=O)CCC(=O)O)CSSC[C@@H](C(N)=O)NC1=O [CP141072, Suc-Cys-Tyr-Arg-Asp-Pro-Leu-Gly-Val-Ala-Gly-Glu-Met-Cys-NH2] | 15.8 |  |  | 12.6 |  |
| CSCC[C@H](NC(=O)CNC(=O)CNC(=O)[C@H](C)NC(=O)[C@@H](NC(=O)CNC(=O)[C@H](CC(C)C)NC(=O)[C@@H]1CCCN1C(=O)[C@H](CC(=O)O)NC(=O)[C@H](CCCNC(=N)N)NC(=O)[C@H](Cc1ccc(O)cc1)NC(=O)[C@H](CC(C)C)NC(=O)[C@H](CO)NC(=O)[C@@H](NC(=O)CCC(=O)O)C(C)C)C(C)C)C(=O)NCC(=O)N[C@H](C(=O)N[C@@H](Cc1ccc(O)cc1)C(N)=O)C(C)C [CP141073, Suc-Val-Ser-Leu-Tyr-Arg-Asp-Pro-Leu-Gly-Val-Ala-Gly-Gly-Met-Gly-Val-Tyr-NH2] | 2 | 6.31 |  |  |  |
| CSCC[C@@H]1NC(=O)CNC(=O)CNC(=O)[C@H](C)NC(=O)[C@H](C(C)C)NC(=O)CNC(=O)[C@H](CC(C)C)NC(=O)[C@@H]2CCCN2C(=O)[C@H](CC(=O)O)NC(=O)[C@H](CCC(=O)O)NC(=O)[C@H](Cc2ccc(O)cc2)NC(=O)[C@H](CC(C)C)NC(=O)CNC(=O)[C@H]2CCCN2C(=O)CNC1=O [CP141084, Gly-Leu-Tyr-Glu-Asp-Pro-Leu-Gly-Val-Ala-Gly-Gly-Met-Gly-D-Pro] | 0.794 | 0.398 | 5.7 |  |  |
| CCCC[C@@H]1NC(=O)[C@H](CCC(=O)O)NC(=O)CNC(=O)[C@H](C)NC(=O)[C@H](C(C)C)NC(=O)CNC(=O)[C@H](CC(C)C)NC(=O)[C@@H]2CCCN2C(=O)[C@H](CC(=O)O)NC(=O)[C@H](CCCNC(=N)N)NC(=O)[C@H](Cc2ccc(O)cc2)NC(=O)[C@@H](NC(=O)CCC(=O)O)CSSC[C@@H](C(N)=O)NC1=O [CP141089, Suc-Cys-Tyr-Arg-Asp-Pro-Leu-Gly-Val-Ala-Gly-Glu-Nlu-Cys-NH2] | 25.1 |  |  | 50.1 |  |
| CSCC[C@@H]1NC(=O)[C@H](CCC(=O)O)NC(=O)CNC(=O)[C@H](C)NC(=O)[C@H](C(C)C)NC(=O)CNC(=O)[C@H](CC(C)C)NC(=O)[C@@H]2CCCN2C(=O)[C@H](CC(=O)O)NC(=O)[C@H](CCCNC(=N)N)NC(=O)[C@H](Cc2ccc(O)cc2)NC(=O)[C@H](CC(C)C)NC(=O)[C@@H](NC(=O)CCC(=O)O)CSSC[C@@H](C(N)=O)NC(=O)CNC1=O [CP141071, Suc-Cys-Leu-Tyr-Arg-Asp-Pro-Leu-Gly-Val-Ala-Gly-Glu-Met-Gly-Cys-NH2] (HELM PEPTIDE1{[O=C(O)CCC(=O)[*:2]].C.L.Y.R.D.P.L.G.V.A.G.E.M.G.C.[am]}$PEPTIDE1,PEPTIDE1,2:R3-16:R3$$$V2.0) | 0.501 | 2 |  |  |  |
| CCCC[C@H](NC(=O)CNC(=O)CNC(=O)[C@H](C)NC(=O)[C@@H](NC(=O)CNC(=O)[C@H](CC(C)C)NC(=O)[C@@H]1CCCN1C(=O)[C@H](CC(=O)O)NC(=O)[C@H](CCCNC(=N)N)NC(=O)[C@H](Cc1ccc(O)cc1)NC(=O)[C@H](CC(C)C)NC(=O)[C@H](CO)NC(=O)[C@@H](NC(=O)CCC(=O)O)C(C)C)C(C)C)C(=O)NCC(=O)N[C@H](C(=O)N[C@@H](Cc1ccc(O)cc1)C(N)=O)C(C)C [CP141081, Suc-Val-Ser-Leu-Tyr-Arg-Asp-Pro-Leu-Gly-Val-Ala-Gly-Gly-Nlu-Gly-Val-Tyr-NH2] | 3.16 |  |  | 7.94 |  |
| CC[C@H](NC(=O)[C@@H](NC(=O)CNC(=O)[C@H](CCCc1ccccc1)NC(=O)[C@@H]1CCCN1C(=O)[C@H](CC(=O)O)NC(=O)[C@H](CCCNC(=N)N)NC(=O)[C@H](Cc1ccc(O)cc1)NC(=O)[C@H](CC(C)C)NC(=O)[C@H](CO)NC(=O)[C@@H](NC(=O)CCC(=O)O)C(C)C)C(C)C)C(=O)NCC(=O)N[C@@H](CCC(=O)O)C(=O)N[C@@H](CCSC)C(=O)NCC(=O)N[C@H](C(=O)N[C@@H](Cc1ccc(O)cc1)C(N)=O)C(C)C [CP141090, Suc-Val-Ser-Leu-Tyr-Arg-Asp-Pro-Ph5-Gly-Val-Abu-Gly-Glu-Met-Gly-Val-Tyr-NH2] (HELM PEPTIDE1{[O=C(O)CCC(=O)[*:2]].V.S.L.Y.R.D.P.[O=C([C@H](CCCc1ccccc1)N[*:1])[*:2]].G.V.[Abu].G.E.M.G.V.Y.[am]}$$$$V2.0) | 10 |  |  | 15.8 |  |
| CC[C@@H]1NC(=O)[C@H](C(C)C)NC(=O)CNC(=O)[C@H](CCCc2ccccc2)NC(=O)[C@@H]2CCCN2C(=O)[C@H](CC(=O)O)NC(=O)[C@H](CCC(=O)O)NC(=O)[C@H](Cc2ccc(O)cc2)NC(=O)[C@H](CC(C)C)NC(=O)CNC(=O)[C@H]2CCCN2C(=O)CNC(=O)[C@H](CCSC)NC(=O)CNC(=O)CNC1=O [CP141092, Gly-Leu-Tyr-Glu-Asp-Pro-Ph5-Gly-Val-Abu-Gly-Gly-Met-Gly-D-Pro] (HELM PEPTIDE1{[Abu].G.G.M.G.[dP].G.L.Y.E.D.P.[O=C([C@H](CCCc1ccccc1)N[*:1])[*:2]].G.V}$PEPTIDE1,PEPTIDE1,1:R1-15:R2$$$V2.0) | 0.398 |  |  | 0.251 |  |
| CSCC[C@H](NC(=O)[C@H](CCC(=O)O)NC(=O)CNC(=O)[C@H](C)NC(=O)[C@@H](NC(=O)CNC(=O)[C@H](CC(C)C)NC(=O)[C@@H]1CCCN1C(=O)[C@H](CC(=O)O)NC(=O)[C@H](CCCNC(=N)N)NC(=O)[C@H](Cc1ccc(O)cc1)NC(=O)[C@H](CC(C)C)NC(=O)[C@H](CO)NC(=O)[C@@H](NC(=O)CCC(=O)O)C(C)C)C(C)C)C(=O)NCC(=O)N[C@H](C(=O)N[C@@H](Cc1ccc(O)cc1)C(N)=O)C(C)C [CP141075, Suc-Val-Ser-Leu-Tyr-Arg-Asp-Pro-Leu-Gly-Val-Ala-Gly-Glu-Met-Gly-Val-Tyr-NH2] (HELM PEPTIDE1{[O=C(O)CCC(=O)[*:2]].V.S.L.Y.R.D.P.L.G.V.A.G.E.M.G.V.Y.[am]}$$$$V2.0) | 10 | 50.1 |  |  |  |
| CSCC[C@@H]1NC(=O)CNC(=O)CNC(=O)[C@H](C)NC(=O)[C@H](C(C)C)NC(=O)CNC(=O)[C@H](CC(C)C)NC(=O)[C@@H]2CCCN2C(=O)[C@H](CC(=O)O)NC(=O)[C@H](CCC(=O)O)NC(=O)[C@H](Cc2ccc(O)cc2)NC(=O)[C@H](CC(C)C)NC(=O)[C@H](CO)NC(=O)[C@H]2CCCN2C(=O)CNC(=O)[C@H](C(C)C)NC(=O)CNC1=O [CP141083, D-Pro-Ser-Leu-Tyr-Glu-Asp-Pro-Leu-Gly-Val-Ala-Gly-Gly-Met-Gly-Val-Gly] | 5.01 |  |  | 10 |  |
| CSCC[C@H](NC(=O)CNC(=O)CNC(=O)[C@H](C)NC(=O)[C@@H](NC(=O)CNC(=O)[C@H](CC(C)C)NC(=O)[C@@H]1CCCN1C(=O)[C@H](CC(=O)O)NC(=O)[C@H](CCC(=O)O)NC(=O)[C@H](Cc1ccc(O)cc1)NC(=O)[C@H](CC(C)C)NC(=O)[C@H](CO)NC(=O)[C@@H](NC(=O)CCC(=O)O)C(C)C)C(C)C)C(=O)NCC(=O)N[C@H](C(=O)N[C@@H](Cc1ccc(O)cc1)C(N)=O)C(C)C [CP141074, Suc-Val-Ser-Leu-Tyr-Glu-Asp-Pro-Leu-Gly-Val-Ala-Gly-Gly-Met-Gly-Val-Tyr-NH2] | 3.98 | 5.01 |  |  |  |
